Laboratory results taken from patent publication US20260176300A1, “N-ARYLPYRAZOLE NOD2 AGONISTS AS PROMOTERS OF IMMUNE CHECKPOINT INHIBITOR THERAPY” (THE SCRIPPS RESEARCH INSTITUTE, priority 2022, published 2026).

Target: T1, NOD2 (Homo sapiens, UniProt Q9HC29)
T1 construct: host or cells: HEK-293T-derived HEK-Blue NF-kB/SEAP reporter cells
Assay: NOD2-HEK-Blue NF-κB reporter cell activation assay (NOD2-expressing HEK-293T cells)
Assay type: cell-based
Conditions: for EC50: calculated, three-parameter dose-response nonlinear regression, read-out: pEC50 (μM), dose-dependent activation of NOD2-expressing HEK-293T cells (converted)
Procedure, shortened: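 HEK-Blue NOD2 reporter cells in HEK-Blue detection medium were exposed to compounds for 8-10 h at 37° C. (or 16 h in complete DMEM, then QUANTI-Blue for 2-4 h). Secreted alkaline phosphatase read by absorbance at 630 nm; pEC50 from three-parameter dose-response nonlinear regression.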

T1 sequence (Q9HC29 whole entry): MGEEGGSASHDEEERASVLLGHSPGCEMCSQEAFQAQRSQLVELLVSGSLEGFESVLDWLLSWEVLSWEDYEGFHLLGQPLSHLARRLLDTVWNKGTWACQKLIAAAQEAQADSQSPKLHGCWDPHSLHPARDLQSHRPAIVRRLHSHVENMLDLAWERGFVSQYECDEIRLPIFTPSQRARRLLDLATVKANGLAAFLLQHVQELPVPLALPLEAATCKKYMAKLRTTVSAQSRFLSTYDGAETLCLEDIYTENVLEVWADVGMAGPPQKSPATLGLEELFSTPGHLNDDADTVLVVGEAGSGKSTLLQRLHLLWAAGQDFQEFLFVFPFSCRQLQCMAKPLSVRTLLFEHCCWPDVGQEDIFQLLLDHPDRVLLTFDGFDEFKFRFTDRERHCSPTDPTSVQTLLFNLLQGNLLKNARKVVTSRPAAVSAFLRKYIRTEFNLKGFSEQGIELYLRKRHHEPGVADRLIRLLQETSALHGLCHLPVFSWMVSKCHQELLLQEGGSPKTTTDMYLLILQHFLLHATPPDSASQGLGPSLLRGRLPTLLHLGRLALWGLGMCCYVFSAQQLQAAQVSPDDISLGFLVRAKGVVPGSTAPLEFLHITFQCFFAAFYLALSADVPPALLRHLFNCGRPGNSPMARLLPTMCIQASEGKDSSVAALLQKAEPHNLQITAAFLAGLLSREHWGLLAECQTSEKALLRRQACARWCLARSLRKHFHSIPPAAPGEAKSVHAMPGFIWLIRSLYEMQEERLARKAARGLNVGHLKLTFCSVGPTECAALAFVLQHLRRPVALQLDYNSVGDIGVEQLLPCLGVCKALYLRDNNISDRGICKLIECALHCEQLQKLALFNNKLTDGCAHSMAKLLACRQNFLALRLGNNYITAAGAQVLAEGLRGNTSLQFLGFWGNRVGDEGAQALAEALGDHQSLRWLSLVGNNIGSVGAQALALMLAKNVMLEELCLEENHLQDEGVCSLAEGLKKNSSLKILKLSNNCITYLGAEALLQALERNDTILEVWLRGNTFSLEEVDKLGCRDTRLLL

CC(=O)N[C@H]1C(O)O[C@H](CO)[C@@H](O)[C@@H]1O[C@H](C)C(=O)N[C@@H](C)C(=O)N[C@H](CCC(=O)O)C(N)=O (stereo partly drawn) [MDP, (4R)-4-((2S)-2-((2R)-2-(((3R,4R,5S,6R)-3-acetamido-2,5-dihydroxy-6-(hydroxymethyl)tetrahydro-2H-pyran-4-yl)oxy)propanamido)propanamido)-5-amino-5-oxopentanoic acid, reference compound]
EC50: 0.126 µM

CCOC(=O)CC[C@@H](NC(=O)[C@@H](NC(=O)c1c(C)nn(-c2cc[nH]c(=O)c2)c1C)C(C)C)C(=O)OCC [TT030, Diethyl (3,5-dimethyl-1-(2-oxo-1,2-dihydropyridin-4-yl)-1H-pyrazole-4-carbonyl)-L-valyl-D-glutamate]
lipophilic ligand efficiency (LLE) (calculated pEC50 vs. clogP, FIG. 2G): 6.81 | EC50: 0.251 µM
